Molecules are shown by their SMILES. Where two headings read alike, the source gives them in different places.

Holding throughout (format): biochemical
Test [1] deals with T1, Btk (Homo sapiens, UniProt Q06187).
T1 construct: purified from insect cells as a full-length construct containing a N-terminal 6X-His tag; His6 (N); made in house; host or cells: insect cells (Method C)
Put plainly: Btk in vitro inhibitory activity (one of Method A TR-FRET, Method B electrophoretic mobility shift, Method C radiometric filter binding). In short, it runs like this: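 Method A: TR-FRET with 0.5 nM Btk at [ATP]=Km, EDTA-quenched, 665/615 nm ratio; Ki(app) converted to IC50. Method B: 1 nM full-length His6 human BTK, 1 μM FAM peptide, pH 7.5, mobility-shift product/sum ratio, 12-point 4-parameter fit. Method C: radiometric filter binding, 8 nM His-tagged BTK, 0.2 mg/mL poly-Glu-Tyr.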
(In general: A gel shift assay detects complexes by their altered migration in electrophoresis.)

Test [2] concerns the target T2, TEC (Homo sapiens, UniProt P42680).
T2 sequence (P42680 1-631): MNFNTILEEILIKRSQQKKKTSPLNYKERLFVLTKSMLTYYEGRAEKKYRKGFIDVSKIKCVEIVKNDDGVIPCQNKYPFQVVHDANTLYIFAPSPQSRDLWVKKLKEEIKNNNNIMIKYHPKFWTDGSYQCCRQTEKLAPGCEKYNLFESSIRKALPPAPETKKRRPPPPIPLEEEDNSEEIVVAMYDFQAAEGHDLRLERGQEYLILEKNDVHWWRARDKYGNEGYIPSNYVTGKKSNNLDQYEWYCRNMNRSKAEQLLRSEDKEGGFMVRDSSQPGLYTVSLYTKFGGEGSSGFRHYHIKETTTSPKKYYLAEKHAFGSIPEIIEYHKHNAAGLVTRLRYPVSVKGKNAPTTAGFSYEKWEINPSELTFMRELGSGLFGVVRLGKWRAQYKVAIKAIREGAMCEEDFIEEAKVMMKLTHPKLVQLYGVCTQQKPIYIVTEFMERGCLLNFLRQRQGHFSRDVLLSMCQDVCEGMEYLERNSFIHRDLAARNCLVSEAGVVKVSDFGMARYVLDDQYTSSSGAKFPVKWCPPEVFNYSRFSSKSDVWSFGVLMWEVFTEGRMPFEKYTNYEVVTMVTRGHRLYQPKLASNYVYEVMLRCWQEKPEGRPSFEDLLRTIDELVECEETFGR
Put plainly: Inhibition of a panel of kinases (in vitro HotSpot kinase assay, 33P-ATP, 1 μM ATP). The note with it: for IC50: HotSpot kinase assay, 1 μM ATP; for TEC/Btk: ratio of TEC IC50 to Btk IC50 (selectivity). In a few lines:
(§1)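 Purified kinase enzymes were incubated with an appropriate substrate and 33P-labelled ATP at 1 μM ATP. Inhibition was measured radiometrically from incorporation of the 33P label.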

Test [3] addresses T3, panel of kinases (Homo sapiens, UniProt P51813).
T3 sequence (P51813 1-675): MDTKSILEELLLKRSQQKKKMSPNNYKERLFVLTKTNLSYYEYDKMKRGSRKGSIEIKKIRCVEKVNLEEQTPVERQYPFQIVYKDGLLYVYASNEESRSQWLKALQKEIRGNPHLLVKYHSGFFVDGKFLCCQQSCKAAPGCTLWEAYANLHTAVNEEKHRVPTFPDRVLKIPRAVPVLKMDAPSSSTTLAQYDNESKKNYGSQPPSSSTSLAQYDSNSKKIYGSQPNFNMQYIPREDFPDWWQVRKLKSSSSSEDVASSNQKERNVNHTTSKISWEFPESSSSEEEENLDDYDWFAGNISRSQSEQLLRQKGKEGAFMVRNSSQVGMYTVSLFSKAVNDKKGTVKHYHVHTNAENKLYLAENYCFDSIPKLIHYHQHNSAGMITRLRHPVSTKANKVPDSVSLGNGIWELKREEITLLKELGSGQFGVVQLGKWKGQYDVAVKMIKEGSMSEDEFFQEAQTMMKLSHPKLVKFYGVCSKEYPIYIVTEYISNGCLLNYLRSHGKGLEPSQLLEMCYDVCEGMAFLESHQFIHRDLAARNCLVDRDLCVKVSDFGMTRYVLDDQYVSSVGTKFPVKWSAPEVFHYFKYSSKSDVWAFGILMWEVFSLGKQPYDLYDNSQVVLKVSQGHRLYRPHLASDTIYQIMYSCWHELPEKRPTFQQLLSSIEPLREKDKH
Put plainly: Inhibition of a panel of kinases (in vitro HotSpot kinase assay, 33P-ATP, 1 μM ATP), other kinases. The note with it: BMX wild-type, read-out: BMX-WT IC50. In a few lines:
as §1

[4] abbreviates: method is one of A, B or C, not stated which, read-out: IC50 values against Btk.
Setting [5] is: wild-type Btk, read-out: Btk-WT IC50.

T1 sequence (Q06187 whole entry): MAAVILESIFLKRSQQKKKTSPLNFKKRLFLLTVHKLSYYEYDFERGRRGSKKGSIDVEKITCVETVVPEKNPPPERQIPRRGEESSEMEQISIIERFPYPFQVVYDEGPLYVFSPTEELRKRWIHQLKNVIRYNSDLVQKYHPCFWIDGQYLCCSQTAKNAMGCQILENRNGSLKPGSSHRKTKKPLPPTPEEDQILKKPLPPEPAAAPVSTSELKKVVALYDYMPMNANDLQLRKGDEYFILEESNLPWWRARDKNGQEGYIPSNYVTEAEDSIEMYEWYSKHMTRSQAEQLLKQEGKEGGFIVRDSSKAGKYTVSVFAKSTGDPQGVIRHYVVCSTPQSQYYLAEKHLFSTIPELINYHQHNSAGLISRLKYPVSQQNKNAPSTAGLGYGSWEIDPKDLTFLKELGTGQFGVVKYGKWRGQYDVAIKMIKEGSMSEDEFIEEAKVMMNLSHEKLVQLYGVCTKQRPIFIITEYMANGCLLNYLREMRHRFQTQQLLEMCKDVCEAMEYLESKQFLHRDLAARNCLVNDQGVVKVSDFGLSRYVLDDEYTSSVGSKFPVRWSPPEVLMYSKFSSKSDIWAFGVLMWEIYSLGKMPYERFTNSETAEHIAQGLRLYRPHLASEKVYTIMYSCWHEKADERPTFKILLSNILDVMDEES

Regarding `C=CC(=O)N1CCC[C@H](Nc2n[nH]c3nccc(-c4ccc(CNC(=O)c5nc(C(C)(C)C)no5)c(F)c4)c23)C1` [Example 169, 3-tert-butyl-N-{[2-fluoro-4-(3-{[(3S)-1-(prop-2-enoyl)piperidin-3-yl]amino}-1H-pyrazolo[3,4-b]pyridin-4-yl)phenyl]methyl}-1,2,4-oxadiazole-5-carboxamide], the concentration for half-maximal inhibition (IC50) in test [1] (setting [4]) was below 10 nM; in test [1] (setting [5]), 3.72 nM; in test [2] it was 1750 nM; in test [3], 1820 nM. Besides, the TEC/Btk in test [2] amounted to 470.

As to `C[C@@H](NC(=O)c1nc(C(C)(C)C)no1)c1ccc(-c2ccnc3[nH]nc(N4CCC(NS(C)(=O)=O)CC4)c23)cc1` [Example 396, 3-tert-butyl-N-{(1R)-1-[4-(3-{4-[(methanesulfonyl)amino]piperidin-1-yl}-1H-pyrazolo[3,4-b]pyridin-4-yl)phenyl]ethyl}-1,2,4-oxadiazole-5-carboxamide], the IC50 in test [1] (setting [5]) was 0.488 nM; in test [2] it was 235 nM; in test [3], 1190 nM.

As for `C=CC(=O)N1CC[C@@H](Oc2n[nH]c3nccc(-c4ccc(CNC(=O)c5noc(C(C)(C)C)n5)c(F)c4)c23)C1` [Example 272, 5-tert-butyl-N-{[2-fluoro-4-(3-{[(3R)-1-(prop-2-enoyl)pyrrolidin-3-yl]oxy}-1H-pyrazolo[3,4-b]pyridin-4-yl)phenyl]methyl}-1,2,4-oxadiazole-3-carboxamide], the IC50 was found to be 0.0732 nM in test [1] (setting [5]), 18.9 nM in test [2] and 39.2 nM in test [3]. The TEC/Btk in test [2] is 258.

Take `C=CC(=O)N1CC[C@@H](Nc2n[nH]c3nccc(-c4ccc([C@@H](C)NC(=O)c5noc(C(C)(C)C)n5)c(F)c4)c23)C1` [Example 372, 5-tert-butyl-N-{(1R)-1-[2-fluoro-4-(3-{[(3R)-1-(prop-2-enoyl)pyrrolidin-3-yl]amino}-1H-pyrazolo[3,4-b]pyridin-4-yl)phenyl]ethyl}-1,2,4-oxadiazole-3-carboxamide]: the IC50 was determined as 0.0597 nM in test [1] (setting [5]), 30.5 nM in test [2] and 36 nM in test [3].

As for `CC(C)(C)c1nc(C(=O)NCc2ccc(-c3ccnc4[nH]nc(N[C@@H]5CC[C@H](N)C5)c34)cc2F)no1` [Example 315, N-{[4-(3-{[(1R,3S)-3-aminocyclopentyl]amino}-1H-pyrazolo[3,4-b]pyridin-4-yl)-2-fluorophenyl]methyl}-5-tert-butyl-1,2,4-oxadiazole-3-carboxamide], the half-inhibitory concentration (IC50) in test [1] (setting [5]) was determined as 3.79 nM; in test [2], 2250 nM; in test [3] it was 2580 nM.

As to `C[C@H]1NCCC[C@H]1Nc1n[nH]c2nccc(-c3ccc(CNC(=O)c4noc(C(C)(C)C)n4)c(F)c3)c12` [Example 55], the results for the IC50 in test [1] (setting [5]), in test [2] and in test [3] were 29.2 nM, above 10000 nM and above 10000 nM, respectively. The TEC/Btk in test [2] is above 100.

For the compound `C[C@@H](NC(=O)c1cc(C(C)(C)O)on1)c1ccc(-c2ccnc3[nH]nc(N4CCOCC4)c23)cc1` [Example 404, 5-(2-hydroxypropan-2-yl)-N-[(1R)-1-{4-[3-(morpholin-4-yl)-1H-pyrazolo[3,4-b]pyridin-4-yl]phenyl}ethyl]-1,2-oxazole-3-carboxamide], the IC50 in test [1] (setting [5]) worked out at 18 nM; in test [2], 685 nM; in test [3] it was 498 nM.

As for `CN(C)C(=O)N1CC[C@H](Nc2n[nH]c3nccc(-c4ccc(CNC(=O)c5ccc(C(C)(C)C)cc5)c(F)c4)c23)C1` [Example 114, (3S)-3-{[4-(4-{[(4-tert-butylphenyl)formamido]methyl}-3-fluorophenyl)-1H-pyrazolo[3,4-b]pyridin-3-yl]amino}-N,N-dimethylpyrrolidine-1-carboxamide], the IC50 in test [1] (setting [5]) amounted to 93.3 nM; in test [2], 4100 nM; in test [3], 2110 nM. The TEC/Btk in test [2] is 44.

As to `C=CC(=O)N1CC[C@@H](Nc2n[nH]c3nccc(-c4ccc(CNC(=O)c5cnn(C(C)(C)C)c5)c(F)c4)c23)C1` [Example 80, 1-tert-butyl-N-{[2-fluoro-4-(3-{[(3R)-1-(prop-2-enoyl)pyrrolidin-3-yl]amino}-1H-pyrazolo[3,4-b]pyridin-4-yl)phenyl]methyl}-1H-pyrazole-4-carboxamide], the IC50 in test [1] (setting [4]) is below 10 nM; in test [1] (setting [5]), 0.129 nM; in test [2], 57 nM; in test [3], 76 nM. Also, in test [2], the TEC/Btk was 440.

As for `C=CC(=O)N1CC[C@@H](Nc2n[nH]c3nccc(-c4ccc(CN5CCc6cc(C(C)(C)C)ccc6C5=O)c(F)c4)c23)C1` [Compound 43, 6-tert-butyl-2-{[2-fluoro-4-(3-{[(3R)-1-(prop-2-enoyl)pyrrolidin-3-yl]amino}-1H-pyrazolo[3,4-b]pyridin-4-yl)phenyl]methyl}-1,2,3,4-tetrahydroisoquinolin-1-one], the concentration for half-maximal inhibition (IC50) was determined as 2.76 nM in test [1] (setting [5]), 599 nM in test [2] and 394 nM in test [3]. For the same compound, in test [2], the TEC/Btk was 217.

For the compound `C[C@H](NC(=O)c1noc(C(C)(C)C)n1)c1ccc(-c2ccnc3[nH]nc(N[C@@H]4CCNC4)c23)cc1` [Example 72, 5-tert-butyl-N-[(1S)-1-[4-(3-{[(3R)-pyrrolidin-3-yl]amino}-1H-pyrazolo[3,4-b]pyridin-4-yl)phenyl]ethyl]-1,2,4-oxadiazole-3-carboxamide], the IC50 in test [1] (setting [5]), in test [2] and in test [3] was above 10000 nM throughout. Besides, the TEC/Btk in test [2] is on record as above 100.

For `CC1(C(=O)N2CC[C@H](Nc3n[nH]c4nccc(-c5ccc(CNC(=O)c6noc(C(C)(C)C)n6)c(F)c5)c34)C2)COC1` [Example 94, 5-tert-butyl-N-{[2-fluoro-4-(3-{[(3S)-1-(3-methyloxetane-3-carbonyl)pyrrolidin-3-yl]amino}-1H-pyrazolo[3,4-b]pyridin-4-yl)phenyl]methyl}-1,2,4-oxadiazole-3-carboxamide], the IC50 in test [1] (setting [5]) is 25.3 nM; in test [2], above 10000 nM; in test [3] it was above 10000 nM. Moreover, in test [2], the TEC/Btk is above 100.

Turning to `C=CC(=O)N1CC(Nc2n[nH]c3nccc(-c4ccc(CNC(=O)c5ccc(C(C)(C)C)cc5)c(F)c4)c23)C1` [Example 106, 4-tert-butyl-N-{[2-fluoro-4-(3-{[1-(prop-2-enoyl)azetidin-3-yl]amino}-1H-pyrazolo[3,4-b]pyridin-4-yl)phenyl]methyl}benzamide], the IC50 in test [1] (setting [5]), in test [2] and in test [3] was above 10000 nM in each case.

Take `CC(C)(C)c1nc(C(=O)NC2(c3ccc(-c4ccnc5[nH]nc(N[C@@H]6CCCNC6)c45)cc3F)CC2)no1` [Example 121, 5-tert-butyl-N-{1-[2-fluoro-4-(3-{[(3R)-piperidin-3-yl]amino}-1H-pyrazolo[3,4-b]pyridin-4-yl)phenyl]cyclopropyl}-1,2,4-oxadiazole-3-carboxamide]: the IC50 was 210 nM in test [1] (setting [5]), above 10000 nM in test [2] and above 10000 nM in test [3]. For the same compound, the TEC/Btk in test [2] is above 100.

On to `CC(C)(C)c1nc(C(=O)NCc2ccc(-c3ccnc4[nH]nc(NC5CCCC5)c34)cc2F)no1` [Example 257, 5-tert-butyl-N-({4-[3-(cyclopentylamino)-1H-pyrazolo[3,4-b]pyridin-4-yl]-2-fluorophenyl}methyl)-1,2,4-oxadiazole-3-carboxamide], for which the half-maximal inhibitory concentration (IC50) in test [1] (setting [5]) worked out at 10.1 nM; in test [2], 5070 nM; in test [3], 3960 nM. For the same compound, the TEC/Btk in test [2] amounted to 502.

In general, IC50 refers to the concentration that gives 50% inhibition.
